The results in this text go back to PubChem BioAssay (NCI).

Some test systems named below: SNB-19 CNS; SK-MEL-28 melanoma; CAKI-1 renal; SR leukemia; HOP-62 NSCLC; SN12C renal; OVCAR-5 ovarian; SF-295 CNS; NCI-H23 lung; SK-OV-3 ovarian.
Assay in all cases: NCI-60 cell line screen, 48 h

Each structure is given as a SMILES string. “And” between values parts separate entries of the source, which are not always exact repeats. Equal entries are not always repeated.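 1) Cells in 96-well plates. 2) Compound, 48 h, 5 concentrations. 3) Linear interpolation between surrounding doses. 4) Unreached endpoint = highest concentration. GI50 is the concentration that inhibits growth by half. TGI denotes the concentration required for complete inhibition of growth.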

`CCCCCCCCOC(=O)c1cc(O)c(O)c(O)c1`: the GI50 is 5.27 µM with SNB-19 CNS; 7.19 µM in the test with SK-MEL-28 melanoma; 0.644 µM with CAKI-1 renal; 0.352 µM in the test with SR leukemia; 4.77 µM in the test with HOP-62 NSCLC; 3.21 µM in the test with SN12C renal. Besides, the GI50 in the test on OVCAR-5 ovarian is 12.5 µM; with SF-295 CNS it was 2.23 µM; with NCI-H23 lung, 2.63 µM; in the test on SK-OV-3 ovarian it was 7.28 µM. Further, the TGI was more than 58.9 µM with SNB-19 CNS; 29.6 µM in the test with SK-MEL-28 melanoma; 3.52 µM in the test with CAKI-1 renal; 10.3 µM in the test with SR leukemia; 20 µM in the test with HOP-62 NSCLC; 31.7 µM with SN12C renal. Also, the TGI was 52.9 µM in the test with OVCAR-5 ovarian, 8.47 µM in the test with SF-295 CNS, 11.5 µM in the test on NCI-H23 lung and 28 µM in the test on SK-OV-3 ovarian.
In the case of `Cc1cc2cc(Oc3ccnc(Nc4cccc(CS(=O)(=O)NCCN(C)C)c4)n3)ccc2[nH]1`, the GI50 in the test on SNB-19 CNS is 13 µM; in the test with SK-MEL-28 melanoma, 12.1 µM; with CAKI-1 renal, 3.31 µM; in the test on SR leukemia, 1.59 µM; with HOP-62 NSCLC, 7 µM; in the test with SN12C renal it was 5.81 µM. The GI50 was 5.29 µM in the test on OVCAR-5 ovarian, 8.04 µM with SF-295 CNS, 8.8 µM with NCI-H23 lung and 14.4 µM with SK-OV-3 ovarian. Besides, the TGI in the test with SNB-19 CNS is 26.1 µM; with SK-MEL-28 melanoma, 25.1 µM; with CAKI-1 renal, 16.6 µM; in the test with SR leukemia, 4.95 µM; in the test with HOP-62 NSCLC it was 21.6 µM; with SN12C renal, 19.2 µM. The TGI with OVCAR-5 ovarian was 19.5 µM; with SF-295 CNS it was 21.5 µM; in the test on NCI-H23 lung it was 23.6 µM; in the test with SK-OV-3 ovarian it was 29.5 µM.
As for `N#C/C(=C/c1cccs1)c1cccs1`, the GI50 in the test on SNB-19 CNS, with SK-MEL-28 melanoma, with CAKI-1 renal, in the test with SR leukemia, with HOP-62 NSCLC and in the test on SN12C renal was more than 100 µM each time. Also, the GI50 in the test on OVCAR-5 ovarian, in the test on SF-295 CNS, with NCI-H23 lung and with SK-OV-3 ovarian was more than 100 µM in each case. Also, the TGI with SNB-19 CNS, in the test with SK-MEL-28 melanoma, in the test on CAKI-1 renal, in the test on SR leukemia, with HOP-62 NSCLC and in the test with SN12C renal was more than 100 µM throughout. In addition, the TGI with OVCAR-5 ovarian, in the test with SF-295 CNS, with NCI-H23 lung and in the test with SK-OV-3 ovarian was more than 100 µM each time.
Turning to `CC(C)(C)OC(=O)N(CCCn1c2c(c3ccccc3c1=O)C(=O)c1ccccc1-2)CCN(CCCn1c2c(c3ccccc3c1=O)C(=O)c1ccccc1-2)C(=O)OC(C)(C)C`, the GI50 with SNB-19 CNS was 37.8 µM; with SK-MEL-28 melanoma, 37 µM; in the test with CAKI-1 renal, 37.9 µM; in the test with SR leukemia, 2.26 µM; with HOP-62 NSCLC, 19.8 µM; in the test on SN12C renal, 39.9 µM. The GI50 was more than 50 µM in the test with OVCAR-5 ovarian, 14 µM in the test on SF-295 CNS, more than 50 µM with NCI-H23 lung and more than 50 µM in the test on SK-OV-3 ovarian. Further, the TGI in the test with SNB-19 CNS is more than 50 µM; in the test on SK-MEL-28 melanoma, more than 50 µM; in the test on CAKI-1 renal, more than 50 µM; in the test on SR leukemia it was 13.7 µM; in the test with HOP-62 NSCLC, more than 50 µM; in the test with SN12C renal it was more than 50 µM. Also, the TGI in the test on OVCAR-5 ovarian, in the test with SF-295 CNS, with NCI-H23 lung and with SK-OV-3 ovarian was more than 50 µM in each case.
Take `C=CC1(C)/C(=N\O)C(C)(CC)C(=O)N1O` (stereo not given): the TGI with SNB-19 CNS, with SK-MEL-28 melanoma, in the test on CAKI-1 renal, in the test on SR leukemia, in the test on HOP-62 NSCLC and in the test with SN12C renal was more than 100 µM each time. Further, the TGI with OVCAR-5 ovarian, with SF-295 CNS, with NCI-H23 lung and in the test on SK-OV-3 ovarian was more than 100 µM throughout.
For `COc1cccc(C(=O)O)c1Cc1cccc2ccccc12`, the TGI in the test on SNB-19 CNS, in the test with SK-MEL-28 melanoma, in the test on CAKI-1 renal, with SR leukemia, in the test on HOP-62 NSCLC and in the test on SN12C renal was more than 100 µM each time. Besides, the TGI in the test with OVCAR-5 ovarian, with SF-295 CNS, in the test on NCI-H23 lung and in the test with SK-OV-3 ovarian was more than 100 µM each time.
Regarding `O=C(O)C1(C(=O)O)CCN(S(=O)(=O)c2ccccc2)CC1`, the TGI in the test with SNB-19 CNS, in the test with SK-MEL-28 melanoma, with CAKI-1 renal, with SR leukemia, in the test on HOP-62 NSCLC and in the test with SN12C renal was more than 100 µM in each case. The TGI with OVCAR-5 ovarian, in the test on SF-295 CNS, in the test on NCI-H23 lung and in the test with SK-OV-3 ovarian was more than 100 µM in each case.
Take `CCCCCCCCCCCCCCCC[N+](C)(C)C`: the GI50 was 0.129 µM in the test on SNB-19 CNS; 0.482 µM and 2.24 µM with SK-MEL-28 melanoma; 2.05 µM in the test on CAKI-1 renal; 0.166 µM in the test with SR leukemia; 0.198 µM and 1.33 µM in the test on HOP-62 NSCLC; 0.285 µM and 2.06 µM in the test with SN12C renal. Moreover, the GI50 in the test with OVCAR-5 ovarian is 0.196 µM and 1.23 µM; in the test with SF-295 CNS, 0.305 µM and 0.716 µM; in the test on NCI-H23 lung, 0.292 µM and 1.46 µM; in the test with SK-OV-3 ovarian, 0.314 µM and 2.12 µM. The TGI in the test with SNB-19 CNS was 0.255 µM; in the test with SK-MEL-28 melanoma, 1.72 µM and 6.88 µM; with CAKI-1 renal, 10.7 µM; in the test on SR leukemia it was 0.551 µM; in the test with HOP-62 NSCLC it was 0.54 µM and 3.07 µM; with SN12C renal, 1.07 µM and 4.56 µM. The TGI is 0.61 µM and 4.06 µM with OVCAR-5 ovarian; 1.36 µM and 2.38 µM with SF-295 CNS; 1.51 µM and 3.8 µM with NCI-H23 lung; 1.35 µM and 6.2 µM in the test with SK-OV-3 ovarian.
Take `Cc1ccc2nc(NC(=O)CSC(=S)N3CCN(Cc4ccccc4)CC3)sc2c1`: the GI50 with SNB-19 CNS was more than 100 µM; in the test on SK-MEL-28 melanoma, more than 100 µM; in the test with CAKI-1 renal, more than 85.8 µM; with SR leukemia, more than 100 µM; in the test with HOP-62 NSCLC, more than 100 µM; in the test on SN12C renal, more than 100 µM. Besides, the GI50 in the test on OVCAR-5 ovarian, in the test on SF-295 CNS, in the test with NCI-H23 lung and in the test on SK-OV-3 ovarian was more than 100 µM throughout. For the same molecule, the TGI in the test with SNB-19 CNS, in the test on SK-MEL-28 melanoma, with CAKI-1 renal, in the test with SR leukemia, in the test with HOP-62 NSCLC and in the test with SN12C renal was more than 100 µM throughout. The TGI in the test on OVCAR-5 ovarian, in the test on SF-295 CNS, with NCI-H23 lung and with SK-OV-3 ovarian was more than 100 µM throughout.
As for `CCCCCn1ncc(-c2c(O)c(O)cc3c(O)c(-c4c(C)cc5c(-c6cnn(CCCCC)n6)c(O)c(O)cc5c4O)c(C)cc23)n1`, the GI50 in the test with SNB-19 CNS was 0.115 µM; with SK-MEL-28 melanoma it was 0.306 µM; in the test on CAKI-1 renal, 0.156 µM; with SR leukemia, 0.201 µM; with HOP-62 NSCLC, 0.14 µM; in the test on SN12C renal, 0.124 µM. The GI50 in the test with OVCAR-5 ovarian is 0.222 µM; with SF-295 CNS, 0.108 µM; with NCI-H23 lung it was 0.078 µM; in the test on SK-OV-3 ovarian, 0.142 µM. Moreover, the TGI worked out at 5.26 µM in the test with SNB-19 CNS; 6.36 µM with SK-MEL-28 melanoma; 4.24 µM in the test on CAKI-1 renal; 7.27 µM in the test on SR leukemia; 2.75 µM in the test with HOP-62 NSCLC; 5.75 µM with SN12C renal. In addition, the TGI with OVCAR-5 ovarian was found to be 6.57 µM; in the test with SF-295 CNS, 4.6 µM; in the test on NCI-H23 lung, 3.66 µM; in the test on SK-OV-3 ovarian it was 2.64 µM.
For the molecule `CCN(CCc1ccc(F)cc1)c1ccc(CO)c(Cl)c1`, the GI50 was 13.2 µM with SNB-19 CNS; 16.3 µM in the test on SK-MEL-28 melanoma; 4.23 µM in the test with CAKI-1 renal; 13.1 µM with SR leukemia; 13.1 µM with HOP-62 NSCLC; 9.27 µM in the test on SN12C renal. Further, the GI50 is 0.505 µM with OVCAR-5 ovarian, 3.44 µM with SF-295 CNS, 12.2 µM in the test with NCI-H23 lung and 12.4 µM in the test with SK-OV-3 ovarian. The TGI in the test on SNB-19 CNS stood at 26.6 µM; with SK-MEL-28 melanoma it was 31.2 µM; in the test on CAKI-1 renal, 17.2 µM; with SR leukemia it was 42.5 µM; with HOP-62 NSCLC, 26.2 µM; with SN12C renal, 23 µM. The TGI in the test on OVCAR-5 ovarian was found to be 2.28 µM; in the test on SF-295 CNS, 17.6 µM; in the test on NCI-H23 lung it was 31 µM; with SK-OV-3 ovarian, 27.8 µM.
`Cc1cc(Cl)ccc1OCC(=O)Oc1c(Cl)c(Cl)c(Cl)c(Cl)c1Cl`: the TGI is 75.5 µM in the test on SNB-19 CNS; more than 100 µM in the test on SK-MEL-28 melanoma; more than 100 µM with CAKI-1 renal; 60 µM in the test on SR leukemia; 47.2 µM in the test on HOP-62 NSCLC; 62.9 µM with SN12C renal. Also, the TGI with OVCAR-5 ovarian turned out to be 59.2 µM; in the test with SF-295 CNS, 67.9 µM; with NCI-H23 lung it was 95.5 µM; in the test with SK-OV-3 ovarian it was 83.8 µM.
